The values below come from ChEMBL document CHEMBL1201862, “PubChem BioAssay data set” (2004).

Test systems include SF-268; K562; TK-10; RXF 393; OVCAR-5; A549; NCI-H226; HCT-116; SK-OV-3; NCI-H23; LOX IMVI; SK-MEL-5; SW-620; HCC 2998; NCI/ADR-RES; NCI-H460; SK-MEL-28; SNB-75; RPMI-8226; ACHN.
Holding throughout (test): inhibition of tumour cell growth, NCI panel, 48 h

Molecules are shown by their SMILES.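 Following 48 hours of exposure in 96-well plates, responses at five concentrations were used to interpolate endpoints linearly. Here, GI50 denotes the concentration required for 50% inhibition of growth.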 The source made the active and inactive calls. No stated cut-off is given here; in the data, active = GI50 up to about 1.1 µM and inactive = higher. Bounds are passed on as bounds.

Consider `COCCN(C(=O)c1ccccc1)C1CCC(=O)c2[nH]c3ccccc3c21` (centres undefined), for which the GI50 was 9.12 µM (inactive) in the test on SF-268; 3.85 µM (inactive) in the test with K562; 20.3 µM (inactive) in the test on TK-10; 5.83 µM (inactive) in the test on RXF 393; 16.9 µM (inactive) in the test with OVCAR-5; 15.6 µM (inactive) with A549. Also, the GI50 in the test with NCI-H226 is 6.28 µM (inactive); with HCT-116, 13.1 µM (inactive); in the test on SK-OV-3, 15.5 µM (inactive); in the test with NCI-H23 it was 17.7 µM (inactive); in the test with LOX IMVI, > 21.1 µM (inactive); with SK-MEL-5 it was 7.14 µM (inactive). The GI50 is 8.28 µM (inactive) in the test on SW-620; 17.1 µM (inactive) in the test on HCC 2998; 19.3 µM (inactive) in the test with NCI/ADR-RES; 12.8 µM (inactive) in the test on NCI-H460; 6.07 µM (inactive) in the test on SK-MEL-28; 5.62 µM (inactive) in the test with SNB-75. For the same molecule, the GI50 with RPMI-8226 was 17.7 µM (inactive); with ACHN, 16.7 µM (inactive).

For `CCOC(=O)c1csc(NC(=O)CN2CCCC2)n1`, the GI50 in the test on SF-268, with K562, in the test on TK-10, in the test on RXF 393, in the test on OVCAR-5 and in the test on A549 was > 100 µM (inactive) throughout. Besides, the GI50 with NCI-H226, with SK-OV-3, in the test on NCI-H23, with LOX IMVI, with SK-MEL-5 and in the test on SW-620 was > 100 µM (inactive) each time. Also, the GI50 in the test on HCC 2998, with NCI/ADR-RES, in the test on NCI-H460, in the test with SK-MEL-28, with SNB-75 and in the test on RPMI-8226 was > 100 µM (inactive) each time. In addition, the GI50 with ACHN was > 100 µM (inactive).

`O=C1OCC=C1COC1OC(CO)C(O)C(O)C1O` (centres undefined): the GI50 in the test on SF-268, with K562, in the test on TK-10, in the test on RXF 393, with OVCAR-5 and in the test on A549 was > 100 µM (inactive) in each case. Moreover, the GI50 in the test on NCI-H226, with HCT-116, in the test with SK-OV-3, in the test with NCI-H23, with LOX IMVI and in the test with SK-MEL-5 was > 100 µM (inactive) throughout. Moreover, the GI50 in the test with SW-620, in the test on HCC 2998, in the test on NCI/ADR-RES, with NCI-H460, in the test on SK-MEL-28 and in the test on SNB-75 was > 100 µM (inactive) in each case. The GI50 in the test on RPMI-8226 and with ACHN was > 100 µM (inactive) in each case.

`COc1ccc(NC(=S)c2ccc([N+](=O)[O-])o2)cc1`: the GI50 in the test on SF-268 was 2.04 µM (inactive); in the test with K562, 2.07 µM (inactive); with TK-10 it was 3.07 µM (inactive); with RXF 393 it was 1.99 µM (inactive); with OVCAR-5, 3.02 µM (inactive); in the test on A549, 3.18 µM (inactive). Further, the GI50 in the test on NCI-H226 was 0.82 µM (active); in the test on HCT-116 it was 1.52 µM (inactive); in the test with SK-OV-3 it was 12.3 µM (inactive); in the test with NCI-H23, 1.6 µM (inactive); with LOX IMVI, 1.12 µM (inactive); in the test on SK-MEL-5 it was 0.65 µM (active). In addition, the GI50 was 0.918 µM (active) in the test with SW-620; 1.62 µM (inactive) with HCC 2998; 0.678 µM (active) with NCI/ADR-RES; 2.18 µM (inactive) with NCI-H460; 3.22 µM (inactive) in the test with SK-MEL-28; 3.19 µM (inactive) in the test on SNB-75. For the same molecule, the GI50 with RPMI-8226 is 1.19 µM (inactive); in the test on ACHN, 2.01 µM (inactive).
